# Results published in ChEMBL document CHEMBL5500338, “Design, synthesis, and biological evaluation of piperazine derivatives as pan-PPARs agonists for the treatment of liver fibrosis” (Eur J Med Chem, 2024).
# Columns and labels:
# Assay type in all cases: cell-based
# [1] = molecular target: T1, Peroxisome proliferator-activated receptor gamma (Homo sapiens, UniProt P37231); assay: Agonist activity at human PPARgamma transfected in African green monkey COS-7 cells co-transfected with pGL4.35 and pBIND reporter gene plasmid assessed as receptor transactivation incubated for 16 hrs by luciferase reporter gene assay
# T1 sequence (P37231 whole entry): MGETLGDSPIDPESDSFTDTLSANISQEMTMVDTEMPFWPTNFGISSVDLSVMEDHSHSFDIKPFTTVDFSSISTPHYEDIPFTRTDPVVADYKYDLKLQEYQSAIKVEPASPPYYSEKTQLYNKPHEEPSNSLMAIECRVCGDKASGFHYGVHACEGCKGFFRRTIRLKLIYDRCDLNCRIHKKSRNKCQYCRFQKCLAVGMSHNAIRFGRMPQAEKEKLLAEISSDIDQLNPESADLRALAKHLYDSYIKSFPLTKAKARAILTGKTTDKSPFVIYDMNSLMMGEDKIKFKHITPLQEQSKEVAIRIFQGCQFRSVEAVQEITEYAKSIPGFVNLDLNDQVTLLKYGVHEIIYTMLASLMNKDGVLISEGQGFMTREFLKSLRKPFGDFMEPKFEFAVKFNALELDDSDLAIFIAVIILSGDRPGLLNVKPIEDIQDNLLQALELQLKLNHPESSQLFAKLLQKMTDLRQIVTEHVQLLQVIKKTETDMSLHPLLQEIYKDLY
# [2] = molecular target: T2, Peroxisome proliferator-activated receptor delta (Homo sapiens, UniProt Q03181); assay: Agonist activity at human PPARdelta transfected in African green monkey COS-7 cells co-transfected with pGL4.35 and pBIND reporter gene plasmid assessed as receptor transactivation incubated for 16 hrs by luciferase reporter gene assay
# T2 sequence (Q03181 whole entry): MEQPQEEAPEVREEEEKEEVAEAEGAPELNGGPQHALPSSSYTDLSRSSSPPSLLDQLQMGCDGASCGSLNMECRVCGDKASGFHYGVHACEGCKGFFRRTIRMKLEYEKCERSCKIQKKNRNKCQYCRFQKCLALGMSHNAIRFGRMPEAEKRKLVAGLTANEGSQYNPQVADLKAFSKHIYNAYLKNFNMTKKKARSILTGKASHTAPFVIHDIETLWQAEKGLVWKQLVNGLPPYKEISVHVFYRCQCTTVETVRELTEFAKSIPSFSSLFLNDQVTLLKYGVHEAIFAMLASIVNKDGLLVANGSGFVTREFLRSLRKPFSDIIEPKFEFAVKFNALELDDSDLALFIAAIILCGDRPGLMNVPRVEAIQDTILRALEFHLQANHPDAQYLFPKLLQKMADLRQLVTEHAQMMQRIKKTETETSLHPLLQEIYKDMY
# [3] = molecular target: T3, Peroxisome proliferator-activated receptor alpha (Homo sapiens, UniProt Q07869); assay: Agonist activity at human PPARalpha transfected in African green monkey COS-7 cells co-transfected with pGL4.35 and pBIND reporter gene plasmid assessed as receptor transactivation incubated for 16 hrs by luciferase reporter gene assay
# T3 sequence (Q07869 whole entry): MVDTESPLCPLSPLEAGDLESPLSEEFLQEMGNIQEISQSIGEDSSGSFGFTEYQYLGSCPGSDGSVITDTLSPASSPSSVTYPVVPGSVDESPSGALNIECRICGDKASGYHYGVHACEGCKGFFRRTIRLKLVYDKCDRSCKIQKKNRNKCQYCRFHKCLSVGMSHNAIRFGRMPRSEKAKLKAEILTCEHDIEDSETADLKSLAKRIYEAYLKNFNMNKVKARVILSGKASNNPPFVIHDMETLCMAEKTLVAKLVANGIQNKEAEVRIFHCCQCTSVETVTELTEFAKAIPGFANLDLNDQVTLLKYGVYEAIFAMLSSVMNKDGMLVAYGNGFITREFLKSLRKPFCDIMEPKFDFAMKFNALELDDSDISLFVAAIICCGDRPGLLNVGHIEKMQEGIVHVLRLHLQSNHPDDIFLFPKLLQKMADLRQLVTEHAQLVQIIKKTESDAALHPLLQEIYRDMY
EC50 [1],EC50 [2],EC50 [3],Compound
8.6 µM,2 µM,–,Cc1cc(CN2CCN(Cc3ccc(C(F)(F)F)cn3)CC2)cc(C)c1OC(C)(C)C(=O)O
–,> 10 µM,–,Cc1cc(CN2CCN(c3ncccc3C(F)(F)F)CC2)cc(C)c1OC(C)(C)C(=O)O
> 10 µM,–,–,Cc1cc(CN2CCN(c3ccc(C(F)(F)F)nc3)CC2)cc(C)c1OC(C)(C)C(=O)O
> 10 µM,–,–,Cc1cc(CN2CCN(Cc3ccc(C(F)(F)F)nc3)CC2)cc(C)c1OC(C)(C)C(=O)O
> 10 µM,3.2 µM,–,Cc1cc(CN2CCN(c3cnc(C(F)(F)F)nc3)CC2)cc(C)c1OC(C)(C)C(=O)O
–,0.8 µM,–,Cc1cc(CN2CCN(c3ncc(C(F)(F)F)cn3)CC2)cc(C)c1OC(C)(C)C(=O)O

# More lines, now with the values behind:
Compound,EC50 [1],EC50 [2],EC50 [3]
Cc1c(CN2CCN(c3ccc(C(F)(F)F)cc3)CC2)ccc(OC(C)(C)C(=O)O)c1C,> 10 µM,–,–
Cc1cc(CN2CCN(c3ccc(F)cn3)CC2)cc(C)c1OC(C)(C)C(=O)O,7.2 µM,> 10 µM,–
Cc1ccc(N2CCN(Cc3cc(C)c(OC(C)(C)C(=O)O)c(C)c3)CC2)nc1,–,> 10 µM,–
Cc1cc(CN2CCN(c3ccccn3)CC2)cc(C)c1OC(C)(C)C(=O)O,–,> 10 µM,–
Cc1cc(OC(C)(C)C(=O)O)ccc1CN1CCN(c2ccc(C(F)(F)F)cc2)CC1,–,–,> 10 µM
Cc1cc(CN2CCN(c3ccc(C(F)(F)F)cc3)CC2)cc(C)c1OC(C)(C)C(=O)O,> 10 µM,0.8 µM,–
Cc1cc(CN2CCN(c3ccc(C(F)(F)F)cc3)CC2)ccc1OC(C)(C)C(=O)O,> 10 µM,–,–
CC(C)(Oc1ccc(CN2CCN(c3ccc(C(F)(F)F)cc3)CC2)cc1)C(=O)O,> 10 µM,4.4 µM,–
CC(C)(Oc1ccc(CCNC(=O)c2ccc(Cl)cc2)cc1)C(=O)O [BEZAFIBRATE],13.2 µM,49.7 µM,–
O=C(O)CCCc1cc2cc(Cl)ccc2n1S(=O)(=O)c1ccc2ncsc2c1 [LANIFIBRANOR],0.6 µM,2.9 µM,3.2 µM
